According to PubChem BioAssay AID1963845 (Molecular Pharmacology Branch, DTP, NCI, 2024):
Values joined by “and” are separate entries in the source; they are usually repeats but may differ in a detail not shown here. Equal values may be shown once.

Test system: 429239-143-T-J1-PDC complex spheroid viability
Assay: Anticancer human tumor 429239-143-T-J1-PDC patient-derived small cell lung carcinoma cell line growth inhibition [POLQ]
Settings: for viability, T/C: stronger effect = lower value
Procedure: Multicellular complex tumor spheroid response to Polymerase (POL) inhibitors (novobiocin, ART-558, RP6685) in combination with a variety of drugs and investigational agents in selected tumor cell lines
The POL inhibitors (novobiocin, ART-558, and RP6685) were evaluated both individually and in combination with standard of care and investigational anticancer small molecules within a complex spheroid model of solid tumors. . Complex spheroids include a stromal component modeled by human endothelial cells (HUVEC) and fibroblasts modeled by human mesenchymal stem cells (MSCs). The concentration ranges selected for each drug and investigational agent were based upon clinically achievable concentrations if the clinical Cmax of the agent was known.
Compounds. The drugs and investigational agents: novobiocin (NSC847541), ART-558 (NSC835418), RP-6685 (NSC848927), peposertib (NSC802822), ceralasertib (NSC780249), elimusertib (NSC800525), camonsertib (NSC841442), AZD-1390 (NSC803789), olaparib (NSC753686), talazoparib (NSC767125), rucaparib (NSC756644), sotorasib (NSC818433), MRTX-1133 (NSC836407), SN-38 (NSC673596), topotecan (NSC609699), epotoside (NSC141540), doxorubicin (NSC123127), gemcitabine (NSC613327), 5-fluorouracil (NSC19893), paclitaxel (NSC125973), vemurafenib (NSC761431), MSA-2 (NSC828583), SN-011 (NSC837082), adavosertib (NSC754352), prexasertib (NSC758257), carboplatin (NSC241240) and oxaliplatin (NSC266046), were obtained from the National Cancer Institute (NCI) Developmental Therapeutics Program Chemical Repository (21). The FDA-approved anticancer drug set is available from the Developmental Therapeutics Program at https://dtp.cancer.gov/organization/dscb/obtaining/. […] The stock solutions were prepared in dimethyl sulfoxide (DMSO, Sigma-Aldrich, St. Louis, MO, cat. D2650), except for the platinum compounds which were prepared in saline (Quality Biological, Gaithersburg, MD, cat. 114-055-101), at 800-fold the tested concentration and stored at -70 degrees C prior to their use. All drugs and investigational agents were tested over a range starting from a high concentration at or near the clinical Cmax and decreasing in half-log increments. If the clinical Cmax for an agent had not been determined, the highest concentration tested was 10 microM, except for SN-38, which was tested at a high concentration of 1 microM.
Cell Culture. All cells were maintained in an incubator at 37 degrees C and 5% CO2 with 95% humidity. The PDC lines were cultured according to standard operating procedures established by the NCI PDMR (https://pdmr.cancer.gov). Table 3 of the manuscript, lists the cell lines along with the number of the three cell types plated to form the mct-spheroids and media for tumor cell growth. After thawing, all PDC lines, except 997537-175-T-J1-PDC and 415267-285-R-J2-PDC, were cultured in Matrigel-coated flasks prepared with a working solution of 1X Ham's F-12 nutrient mix, without supplementation (Thermo Fisher Scientific, cat. 11765054), 100 U/mL penicillin-streptomycin (Thermo Fisher Scientific, cat. 15140122), and 2.5% Matrigel (Corning Inc., Corning, NY, cat. 354248) for the first three passages. The two PDC lines 997537-175-T-J1-PDC and 415267-285-R-J2-PDC were cultured on uncoated flasks. The 857933-349-R-J2-PDC line was cultured in 6C/Colon 1B media containing advanced DMEM/F-12 (Thermo Fisher Scientific, cat. 12634028), 10 mM HEPES (Thermo Fisher Scientific, cat. 15630080), 1X GlutaMAX supplement (Thermo Fisher Scientific, cat. 35050061), 0.1 mg/mL primocin (InvivoGen, San Diego, CA, cat. ant-pm-2), 10% defined fetal bovine serum, heat inactivated (HyClone Laboratories Inc., Logan, UT, cat. SH30070.03HI), 50% L-WRN conditioned media (ATCC, cat. CRL-3276), 1.25 mM N-Acetyl-L-cysteine (Sigma-Aldrich, cat. A9165), 10 mM nicotinamide (Sigma-Aldrich, cat. N0636), 1X B-27 supplement (Thermo Fisher Scientific, cat. 17504044), 1X N-2 supplement (Thermo Fisher Scientific, cat. […]
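Further: luminescence signal used as surrogate measure of viable cells; spheroids exposed to compounds for seven days before readout.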
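Wherever viability, T/C is given: 100% = DMSO vehicle control viability as luminescence relative to vehicle.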

Compound: C=CCn1c(=O)c2cnc(Nc3ccc(N4CCN(C)CC4)cc3)nc2n1-c1cccc(C(C)(C)O)n1 + Nc1ccc(C#CCN(C(=O)Cc2ncc(C(F)(F)F)cc2C(F)(F)F)c2ccc(F)cc2)nn1
- IC50 (curve of first compound, second compound 0.0316 µM): 584 nM
- IC50 (curve of first compound, second compound 0.1 µM): 624 nM
- IC50 (curve of first compound, second compound 0.316 µM): 599 nM
- IC50 (curve of first compound, second compound 1 µM): 578 nM
- IC50 (curve of first compound, second compound 3.16 µM): 576 nM
- IC50 (curve of first compound, second compound 10 µM): 548 nM
- viability, T/C (second compound 0.0316 µM, first compound 0.00316 µM): 95.7%
- viability, T/C (second compound 0.0316 µM, first compound 0.01 µM): 97.4%
- viability, T/C (second compound 0.0316 µM, first compound 0.0316 µM): 106%
- viability, T/C (second compound 0.0316 µM, first compound 0.1 µM): 101%
- viability, T/C (second compound 0.0316 µM, first compound 0.316 µM): 88.1%
- viability, T/C (second compound 0.0316 µM, first compound 1 µM): 16.3%
- viability, T/C (second compound 0.1 µM, first compound 0.00316 µM): 99.1%
- viability, T/C (second compound 0.1 µM, first compound 0.01 µM): 103%
- viability, T/C (second compound 0.1 µM, first compound 0.0316 µM): 96.6%
- viability, T/C (second compound 0.1 µM, first compound 0.1 µM): 103%
- viability, T/C (second compound 0.1 µM, first compound 0.316 µM): 95%
- viability, T/C (second compound 0.1 µM, first compound 1 µM): 18.7%
- viability, T/C (second compound 0.316 µM, first compound 0.00316 µM): 106%
- viability, T/C (second compound 0.316 µM, first compound 0.01 µM): 110%
- viability, T/C (second compound 0.316 µM, first compound 0.0316 µM): 108%
- viability, T/C (second compound 0.316 µM, first compound 0.1 µM): 101%
- viability, T/C (second compound 0.316 µM, first compound 0.316 µM): 94%
- viability, T/C (second compound 0.316 µM, first compound 1 µM): 15.2%
- viability, T/C (second compound 1 µM, first compound 0.00316 µM): 111%
- viability, T/C (second compound 1 µM, first compound 0.01 µM): 109%
- viability, T/C (second compound 1 µM, first compound 0.0316 µM): 97.8%
- viability, T/C (second compound 1 µM, first compound 0.1 µM): 105%
- viability, T/C (second compound 1 µM, first compound 0.316 µM): 89.3%
- viability, T/C (second compound 1 µM, first compound 1 µM): 14%
- viability, T/C (second compound 3.16 µM, first compound 0.00316 µM): 109%
- viability, T/C (second compound 3.16 µM, first compound 0.01 µM): 101%
- viability, T/C (second compound 3.16 µM, first compound 0.0316 µM): 100%
- viability, T/C (second compound 3.16 µM, first compound 0.1 µM): 103%
- viability, T/C (second compound 3.16 µM, first compound 0.316 µM): 90.3%
- viability, T/C (second compound 3.16 µM, first compound 1 µM): 12.9%
- viability, T/C (second compound 10 µM, first compound 0.00316 µM): 106%
- viability, T/C (second compound 10 µM, first compound 0.01 µM): 99.7%
- viability, T/C (second compound 10 µM, first compound 0.0316 µM): 122%
- viability, T/C (second compound 10 µM, first compound 0.1 µM): 101%
- viability, T/C (second compound 10 µM, first compound 0.316 µM): 84%
- viability, T/C (second compound 10 µM, first compound 1 µM): 13.3%

Compound: CC1COCCN1c1cc(C2(O)CC3CCC(C2)O3)c2cnn(-c3ccn[nH]3)c2n1 (stereo unspecified)
- viability, T/C (compound 0.0316 µM): 67.2% and 61.1% and 90.8%
- viability, T/C (compound 0.1 µM): 45.3% and 34.4% and 78.8%
- viability, T/C (compound 0.316 µM): 17.6% and 17% and 52.5%
- viability, T/C (compound 1 µM): 10.2% and 7.95% and 6.96%
- viability, T/C (compound 3.16 µM): 9.58% and 7.43% and 2.96%
- viability, T/C (compound 10 µM): 4.72% and 5.39% and 2.25%
- IC50 (curve of compound): 77.6 nM and 51 nM and 324 nM

Compound: CC1COCCN1c1cc(C2(S(C)(=N)=O)CC2)nc(-c2ccnc3[nH]ccc23)n1 (stereo unspecified)
- viability, T/C (compound 0.0316 µM): 106% and 91.7% and 104%
- viability, T/C (compound 0.1 µM): 99.9% and 108% and 91.8%
- viability, T/C (compound 0.316 µM): 94.5% and 93.5% and 97.2%
- viability, T/C (compound 1 µM): 70.8% and 83.8% and 71.7%
- viability, T/C (compound 3.16 µM): 41.6% and 77.8% and 42.5%
- viability, T/C (compound 10 µM): 16.7% and 45.8% and 16.9%
- IC50 (curve of compound): 2270 nM and 8700 nM and 2350 nM
